16 compounds from PubChem BioAssay (NCI) can be followed below.

Test systems include OVCAR-3 ovarian; MALME-3M melanoma; OVCAR-4 ovarian; A498 renal; HT29 colon; SF-295 CNS; HCT-15 colon; MDA-MB-231 breast; MDA-MB-435; MCF7 breast.
Assay in all cases: inhibition of tumour cell growth, NCI panel, 48 h

“And” between values parts separate entries of the source, which are not always exact repeats. Identical values can stand only once.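 In this assay, cells in 96-well plates receive the compound at five concentrations for 48 hours. Endpoints are linearly interpolated between the surrounding concentrations. Here, GI50 denotes the concentration required for 50% inhibition of growth. Definition used: TGI = concentration required for complete inhibition of growth.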 Where only a bound is given, the exact number is not on record here.

As for `COC(=O)c1c(C)cc2c(c1O)C1(O)C(=O)c3cc4c(c(O)c3C(=O)C1(OC)C(O)C2)C(=O)C=C(NC1OC(C)C(OC)C(O)C1OC)C4=O` (centres undefined), the TGI worked out at 0.558 µM with OVCAR-3 ovarian; 0.249 µM with MALME-3M melanoma; 0.213 µM in the test on OVCAR-4 ovarian; 0.71 µM in the test with A498 renal; 0.222 µM with HT29 colon; 0.146 µM in the test on SF-295 CNS. The compound further returned a TGI in the test on HCT-15 colon of 0.443 µM.

Turning to `N#CCCN(CCC#N)c1ccc(/C=N\c2nc(-c3ccccc3)cs2)cc1`, the TGI in the test on OVCAR-3 ovarian, with MALME-3M melanoma, in the test with OVCAR-4 ovarian, in the test with A498 renal, in the test on HT29 colon and in the test on SF-295 CNS was over 100 µM each time. Besides, in the test with HCT-15 colon, the TGI is over 100 µM.

For `C/C=C(\CCC1NCCc2c1[nH]c1ccccc21)[Si](C)(C)C` (centres undefined), the GI50 in the test with OVCAR-3 ovarian was 0.413 µM and 2.91 µM; in the test with HT29 colon, 5.46 µM and 2.21 µM; in the test on SF-295 CNS, 7.13 µM and 2.32 µM. Besides, the TGI with OVCAR-3 ovarian was 2.39 µM and 7.41 µM; with MDA-MB-231 breast, 4.56 µM; in the test with MALME-3M melanoma it was 7.1 µM and 3.23 µM; with OVCAR-4 ovarian it was 12.6 µM and 9.04 µM; with A498 renal, 14 µM and 9.88 µM; in the test with HT29 colon, 10.4 µM and 5.03 µM. The TGI in the test with SF-295 CNS is 17.5 µM and 5.52 µM; in the test with HCT-15 colon, 32.7 µM and 5.08 µM; in the test on MDA-MB-435, 11.1 µM.

As to `Cn1cnc([N+](=O)[O-])c1SC1=NCCS1`, the TGI was over 100 µM in the test with OVCAR-3 ovarian; 70.2 µM in the test with MALME-3M melanoma; over 100 µM in the test with OVCAR-4 ovarian; over 100 µM in the test with A498 renal; over 100 µM with HT29 colon; over 100 µM in the test on SF-295 CNS.

Take `O=C(CC/C(CC(=O)c1ccc(Cl)cc1)=N/O)Nc1ccc(Cl)c(Cl)c1`: the TGI in the test with OVCAR-3 ovarian, in the test with MALME-3M melanoma, in the test on OVCAR-4 ovarian, in the test with A498 renal, in the test with HT29 colon and in the test with SF-295 CNS was over 100 µM each time. Besides, the TGI in the test with HCT-15 colon was over 100 µM.

For `COc1ccc(N(C)c2nc(Cl)nc3ccn(C)c23)cc1`, the GI50 is under 0.01 µM in the test on OVCAR-3 ovarian; under 0.01 µM with MDA-MB-231 breast; over 100 µM with MALME-3M melanoma; under 0.01 µM in the test on OVCAR-4 ovarian; under 0.01 µM in the test with MCF7 breast; under 0.01 µM with A498 renal. The GI50 in the test on HT29 colon, with SF-295 CNS and in the test on HCT-15 colon was under 0.01 µM throughout. The TGI with OVCAR-3 ovarian, in the test with MDA-MB-231 breast, in the test on MALME-3M melanoma, with OVCAR-4 ovarian, in the test with MCF7 breast and with A498 renal was over 100 µM in each case. Besides, the TGI was 0.12 µM with HT29 colon, over 100 µM in the test with SF-295 CNS and over 100 µM in the test on HCT-15 colon.

Consider `O=C1C2C(C(=O)N1c1ccccc1)C1(c3ccccc3)OC2(c2ccccc2)c2ccccc21` (centres undefined), for which the TGI in the test with OVCAR-3 ovarian, in the test with MALME-3M melanoma, with OVCAR-4 ovarian, in the test with HT29 colon, in the test with SF-295 CNS and in the test with HCT-15 colon was over 100 µM throughout.

For `Cn1cnc([N+](=O)[O-])c1Sc1nc2cccnc2s1`, the TGI in the test with OVCAR-3 ovarian was 28.1 µM; in the test on MALME-3M melanoma, 22 µM; in the test on OVCAR-4 ovarian, 25.2 µM; in the test with A498 renal it was over 100 µM; in the test with HT29 colon, 63.7 µM; in the test on SF-295 CNS, over 100 µM. This compound also had a TGI with HCT-15 colon of 24.8 µM.

Consider `Cc1cc(Cl)ccc1NC(=O)CC1SC(N)=NC1=O` (centres undefined), for which the TGI with OVCAR-3 ovarian, with MALME-3M melanoma, with OVCAR-4 ovarian, in the test with A498 renal, in the test on HT29 colon and in the test with SF-295 CNS was over 100 µM throughout. In addition, the TGI in the test with HCT-15 colon is over 100 µM.

With `COCOCc1cc(OCc2ccccc2)c(OC)cc1Br`, the TGI in the test with OVCAR-3 ovarian, with MALME-3M melanoma, in the test with OVCAR-4 ovarian, in the test on A498 renal, with HT29 colon and in the test on SF-295 CNS was over 100 µM each time. This compound also had a TGI with HCT-15 colon of over 100 µM.

Take `Cc1ccc(NC(=O)COC(=O)c2cccc3c(=O)c4ccccc4[nH]c23)cc1`: the TGI is over 100 µM in the test on OVCAR-3 ovarian; over 100 µM in the test with MALME-3M melanoma; over 100 µM in the test with OVCAR-4 ovarian; 92.4 µM in the test with A498 renal; over 100 µM in the test with HT29 colon; over 100 µM in the test on SF-295 CNS.

Turning to `O=C(Nc1ccc([N+](=O)[O-])cc1C(=O)O)c1ccc([N+](=O)[O-])cc1`, the TGI with OVCAR-3 ovarian, in the test with MALME-3M melanoma, in the test on OVCAR-4 ovarian, in the test on A498 renal, with HT29 colon and in the test with SF-295 CNS was over 100 µM in each case. The same compound came in with a TGI in the test with HCT-15 colon of over 100 µM.

Regarding `CC1C=CC(C)C2(O)C(=O)NC(O)C12` (centres undefined), the TGI in the test with MALME-3M melanoma, in the test with OVCAR-4 ovarian, in the test on A498 renal and in the test with HCT-15 colon was over 100 µM throughout.

In the case of `Cc1ccc([N+](=O)[O-])cc1NC(=O)C(=O)Cc1cc(=O)oc2cc(O)ccc12`, the TGI with OVCAR-3 ovarian, with MALME-3M melanoma, in the test on OVCAR-4 ovarian, with A498 renal, with HT29 colon and with SF-295 CNS was over 100 µM in each case. Further, in the test on HCT-15 colon, the TGI is over 100 µM.

Consider `Cc1cc(NS(=O)(=O)c2ccc(NC(=O)c3cccc4cc5ccccc5nc34)cc2)no1`, for which the TGI was 45.5 µM in the test with OVCAR-3 ovarian; 31.9 µM with MALME-3M melanoma; 39.7 µM in the test with OVCAR-4 ovarian; 37 µM in the test with A498 renal; over 100 µM with HT29 colon; 59.1 µM in the test on SF-295 CNS. Moreover, the TGI with HCT-15 colon was 35.7 µM.

Regarding `CCC[CH2][Sn]1([CH2]CCC)[O]C(=O)c2cccc(OC)c2[O]1`, the GI50 was 0.626 µM in the test with OVCAR-3 ovarian; 0.14 µM with MALME-3M melanoma; 1.05 µM in the test with OVCAR-4 ovarian; 0.21 µM in the test on A498 renal; 0.798 µM with HT29 colon; 1.08 µM in the test with SF-295 CNS. Moreover, the GI50 with HCT-15 colon was 0.698 µM. Further, the TGI in the test with OVCAR-3 ovarian is 2.01 µM; in the test with MALME-3M melanoma, 0.633 µM; with OVCAR-4 ovarian it was 2.25 µM; in the test on A498 renal, 0.465 µM; with HT29 colon it was 2.09 µM; with SF-295 CNS it was 2.27 µM. Also, the TGI in the test with HCT-15 colon is 2 µM.
